# Assay results from US20190030114A1, “ISOFORM-SPECIFIC CALPAIN INHIBITORS, METHODS OF IDENTIFICATION, AND USES THEREOF” (WESTERN UNIVERSITY OF HEALTH SCIENCES, priority 2014, published 2019).
# Tests used:
# retina (GCL, IPL, RGC) = assay: acute IOP elevation (acute angle closure glaucoma model), systemic (i.p.) C2l; format: in vivo, mice
# [1] = test system: cortical neuronal cultures (14 DIV); assay: neuronal death mediated by extrasynaptic NMDA receptor activation; format: cell-based; conditions: dose-dependent from 200 nM to 5 μM
# Experimental: Results are expressed as percent of neurons positively stained with the Hoechst reagent and are means±S.E.M. of 3-4 experiments (*p<0.01, Student's t-test).
# A selective calpain-2 inhibitor blocks neuronal death mediated by extrasynaptic NMDA receptor activation. Cortical neuronal cultures (14 DIV) were treated to induce selective activation of extrasynaptic NMDA receptors, which results in neuronal cell death.
# [2] = test system: retina (GCL, RGC), vision; assay: acute IOP elevation, intravitreal C2l: GCL cell death, OKR visual acuity, RGC density
# Experimental: FIG. 12C: H&E staining in retinal sections of WT mice after IOP elevation and intravitreal injection of vehicle or C2l. Vehicle or C2l (20 μM, 1 μI) was injected 2 h after IOP elevation or sham surgery. Eyes were collected 3 days after surgery for H&E staining. Scale bar=30 μm.
# FIG. 12D: Quantification of GCL cell numbers, based on H&E stains, as described in FIG. 12C.
# FIG. 12F: OKR spatial frequency thresholds of eyes measured 3 days after IOP elevation or sham surgery. Vehicle or C2l (20 μM, 1 μI) was injected intravitreally 2 h after surgery. Surgery and injection were always performed in the right eye (OD). OKR of the Left eye (OS) was measured as control.
# One-way ANOVA followed by Bonferroni test.
# FIG. 12H: RGC density in the retina of the eyes at 21 days after surgery, as described in FIG. 12F. Eyes were collected after OKR test 21 days after surgery. Brn-3a immunostaining was performed in retinal sections of the eyes. Brn-3a-positive cells in GCL were counted.
# We used intravitreal C2l injection in order to locally deliver C2l to retina. First, we tested the delivery efficiency by injecting different doses of C2l intravitreally 2 h after IOP elevation in calpain-1 KO mice and analyzing SBDP levels in IPL at 4 h (FIG. 12A and B). […] In all subsequent experiments, 20 μM (1 μl) was used to examine the neuroprotective effects of intravitreal C2l injection. Eyes were collected 3 days after surgery for H&E staining.
# To examine vision of mice after glaucoma, we tested the optokinetic reflex (OKR) in mice (FIG. 15A). OKR is the saccadic eye movement triggered by the movement of gratings in front of the mouse eye. Changing the frequency of gratings and determining the […] frequency triggering OKR, allows analyzing visual acuity of each eye. Acute IOP elevation or sham surgery was performed in the right eye (OD). Left eye (OS) served as a naive control. Intravitreal C2l or vehicle injection was performed 2 h after surgery. Three and 21 days after surgery, OKR was determined in both eyes (FIG. 5f,g). […] Mice were sacrificed after OKR test at day 21 and RGC densities were analyzed with brn-3a immunostaining in retinal sections (FIG. 12H).
# [3] = test system: stratum radiatum of field CA1 in acute rat hippocampal slices; assay: field EPSP recording, TBS-induced LTP in acute rat hippocampal slices; format: cell-based; conditions: for LTP after theta-burst stimulation: 200 nM, preincubation prior to TBS
# Experimental: Results are expressed as percent of the average values over a 10 min baseline period and are means±S.E.M. of the indicated number of experiments.
# FIG. 3A: Field recording of excitatory postsynaptic potentials (EPSPs) performed in stratum radiatum of field CA1 in acute rat hippocampal slices in the presence or absence of 200 nM of the calpain-2 selective inhibitor, Formula I, (mCalp-I in the drawing). Preincubation with mCalp-I enhances LTP. Results are expressed as percent of the average values over a 10 min baseline period and are means±S.E.M. of the indicated number of experiments.
# Results are expressed as percent of the average values over the 10 min baseline period and are means±S.E.M. of the indicated number of experiments.
# Generic calpain inhibitors block LTP when administered before LTP induction. Field recording of excitatory postsynaptic potentials (EPSPs; FIG. 2) was performed in stratum radiatum of field CA1 in acute rat hippocampal slices.
# A calpain 2-selective inhibitor enhances LTP. […]
# [4] = injected 2 h after IOP elevation, WT mice, n=5
structure (smiles),measurement,setting,value
"CCC(NC(=O)C(CC(C)C)NC(=O)OCc1ccccc1)C(=O)C(=O)NCc1cc(OC)cc(OC)c1 (racemic) [Formula 1, Z-Leu-Abu-CONH—CH2-C6H3 (3, 5-(OMe)2)]",survival rate of RGC versus vehicle,"retina (GCL, IPL, RGC); injected 2 h after IOP elevation",significantly improved
same,"RGC counts (brn-3a), IOP-elevated eye","retina (GCL, IPL, RGC); [4]",37.1±2.5 cells/mm
same,"RGC counts (brn-3a), sham eye","retina (GCL, IPL, RGC); [4]",45.2±5.0 cells/mm
same,changes in PHLPP1 and pAkt after IOP elevation,"retina (GCL, IPL, RGC); retina 3 h after IOP elevation, 0.3 mg/kg at 2 h",present in C2l-injected WT mice
same,neuronal cell death associated with extrasynaptic NMDA receptor activation,[1],reduced the neuronal cell death
same,neuronal cell death associated with extrasynaptic NMDA receptor activation,[1]; listed as Formula I,reduced neuronal cell death
same,"RGC counts (H&E), IOP-elevated eyes","[2]; 20 μM (1 μl) intravitreal 2 h after IOP elevation, 3 days",101.3±9.2 cells/mm
same,Survival rate in GCL,"[2]; 20 μM (1 μl) intravitreal 2 h after IOP elevation, vehicle 47.2±5.4%",80.8±8.4%
same,"RGC counts (H&E), sham eye","[2]; 20 μM (1 μl) intravitreal 2 h after surgery, 3 days",128.1±7.2 cells/mm
same,RGC densities (brn-3a) in IOP elevated eyes,[2]; day 21,recovered
same,visual acuity (OKR) after increased IOP,"[2]; intravitreal 2 h after surgery, day 3 and day 21",significantly improved
same,visual acuity (OKR) of sham eye versus vehicle,[2]; intravitreal injection in the sham eye,did not affect visual acuity
same,LTP after theta-burst stimulation,[3],enhances it
same,LTP after theta-burst stimulation,[3]; listed as mCalp-I,enhances LTP
same,LTP during the consolidation phase,[3]; applied from 10 min post TBS to 1 hour post TBS,enhanced LTP
